Assay results reported in patent US7728128B2, “Dibenzo[c,h][1,5]naphthyridines and their use as DNA probes” (Institut National de la Sante et de la Recherche Medicate …, priority 2006, dated 2010).

Assays:
[1] = test system: plasmid DNA; experiment: absorption of free molecules before and after addition of plasmid DNA; format: physicochemical; set-up: Absorption maxima free dye / Absorption maxima DNA bound dye: unit not given here; settings: for Absorption maxima DNA bound dye: after addition of plasmid DNA; for Absorption maxima free dye: free molecule, before addition of plasmid DNA
Description: (§1) Plasmid dsDNA was purified using a Qiagen Maxiprep kit and used in the supercoiled form for absorption and fluorescence studies. E. coli total RNA was bought from Ambion, dA/dT and dG/dC homopolymers were purchased from Amersham Biosciences. Calf thymus (CT) high-molecular weight DNA and Hoechst 33258 were obtained from Sigma-Aldrich. Ethidium bromide was purchased from Amresco.
(§2) Spectrometry and fluorimetry were performed using a SpectraMax384 (Molecular Devices) and a Luminescence Spectrometer LS50B (Perkin Elmer). Fluorescence emission of compound I in complex with DNA and RNA was measured in 50 mM Na phosphate buffer, pH 7.2 at room temperature. Before use, total E. coli RNA was heated to 100° C. for 1 min and immediately transferred on ice for 5 min before mixing with compound I solution. All measurements were carried out at room temperature (20-23° C.) in solutions protected from light and incubated for ˜10-15 min after dilution. The units of b/dye and bp/dye are defined as moles of RNA bases or DNA base pairs per mole of dye. Quantum yield was measured using quinine sulphate as standard as described in (Iupac Commission on Photochemistry, EPA Newsletter of November 1986, 21-29) using FLUOROMAX-3 Spex Spectrofluorometer (HORIBA) and UVIKON XL Spectrophotometer (SECOMAM).
(§3) Although compound I also stains mitotic chromosomes (FIG. 1D), theoretically it was possible that it binds specifically to DNA-associated proteins (for example histones) rather than to nucleic acids. To resolve this issue, the absorption and emission spectra of free compound I before and after addition of dsDNA were recorded. […] Molar extinction coefficient (EC) of free compound I at 391 nm was measured at 10,800 cm^−1 M^−1. In the presence of ds plasmid DNA the absorption peaks of compound I at 373 and 391 nm decreased, and a new peak appears with a maximum at 435 nm (FIG. 1E). An overlay of the absorption spectra in complex with dsDNA at different bp per dye ratios gives a single isosbestic point at 398 nm. Free compound I fluoresces around 438 nm (the exact position of the peak depends on the excitation wavelength). […] At the same time, a new peak evolves with a maximum around 484 nm (FIG. 1F). The exact maximum of fluorescence of compound I/DNA complexes varies insignificantly as a function of the dye/bp ratio and/or base pairs composition of the nucleic acids. […] The quantum yield for compound I (excited at 435 nm) at 5 μM in 50 mM Na-phosphate, pH 7.2, was determined to be 2.7% for free dye and 13.8% in admixture with 50 μM CT DNA.
(§4) To get a further insight into how the structural properties of compound I contribute to its binding to DNA, the inventors analysed fourteen structural analogues present in the compound library. Although several of these compounds are fluorescent in vivo, this property went undetected in the initial screen most likely due to the latency period before the appearance of the signal (see below). To evaluate the activity of compound I-like molecules three tests were used: (1) in vivo, the inventors incubated human fibroblasts in the presence of the molecules and scored nuclear fluorescence in the microscope; (2 and 3) in vitro, the inventors looked at the absorption and fluorescence of free molecules before and after addition of plasmid DNA. […] With the exception of compound I and analogues 8 and 12, accurate in vitro measurement of the fluorescence intensities was impossible because the emission peaks for the free molecules were too close to that for the DNA-bound dye. This affected the height of the dye/DNA peaks.

[2] = test system: plasmid DNA; experiment: fluorescence of free molecules before and after addition of plasmid DNA; format: physicochemical; set-up: Fluorescence maxima free dye / Fluorescence maxima DNA bound dye: unit not given beside the values; settings: for Fluorescence maxima DNA bound dye: after addition of plasmid DNA; for Fluorescence maxima free dye: free molecule, before addition of plasmid DNA
Description: as §1, §2, §3, §4

[3] = test system: human fibroblasts; experiment: in vivo nuclear fluorescence of human fibroblasts incubated with the molecules, scored in the microscope; format: cell-based; set-up: key: Weak: Staining was defined as “weak”, “moderate” or “strong” based on the nuclear signal/background ratio.; Moderate: Staining was defined as “weak”, “moderate” or “strong” based on the nuclear signal/background ratio.; Strong: Staining was defined as “weak”, “moderate” or “strong” based on the nuclear signal/background ratio; settings: 10 μM, 10-60 min (up to 24 hours); Alexa488/FITC filter
Description: In this study, three different types of cells were used: Xenopus epithelial cell line XL177 (Miller, L. et al., 1977, In Vitro, 13, 557-563) stably transformed with a YFP-α-tubulin expressing construct (pEYFP-Tub, Clontech), mouse fibroblasts, and primary human skin fibroblasts. XL177 cells were grown at 20° C. in 60% Leibowitz-15 medium, supplemented with antibiotics, 10% fetal calf serum (FCS) and 10 mM HEPES, pH 7.2 with addition of 0.7 mg/ml G418. Cells were plated into glass-bottom 96-well plates (Greiner, Germany) and left to spread for 24 hours before being incubated in the presence of the test compounds from the Curie-CNRS small molecule library (at 25 or 50 μM final concentration) for another 20-24 hours. Mouse and human fibroblasts were grown in DMEM with antibiotics and 10% FCS at 37° C. in the presence of 5% CO2. The cells were observed using a Zeiss Axiovert 200M microscope with a 40× oil immersion objective and a standard Alexa488/FITC filter (Omega, XF100-2; Ex475AF40/Em535AF45/Dichroic505). Subsequent experiments were carried out using smaller concentrations of compound I and incubation times as described in the text and figures legends. For the in vivo tests of compound I-like compounds, the molecules were added to cell culture medium at 10 μM final concentration and incubated with cells 10-60 min (up to 24 hours) prior to scoring.
as §4

melting point [°C]	Absorption maxima DNA bound dye [1]	Absorption maxima free dye [1]	Fluorescence maxima DNA bound dye [2]	Fluorescence maxima free dye [2]	SMILES	Images of the in vivo nuclear staining [3]
100	375/375	375/375	–	–	OCCNCCNc1nc2c3ccccc3cnc2c2ccccc12 [Compound 3, 2-[2-(Dibenzo[c,h][1,5]naphthyridin-6-ylamino)-ethylamino]-ethanol]	–
169	395	375	472	468	COc1ccc2c(c1)c(NCCN(C)C)nc1c3ccccc3c(NCCN(C)C)nc21 [Compound 9, N6,N12-bis-(2-dimethylamino-ethyl)-2-methoxy-dibenzo[c,h][1,5]naphthyridin-6,12-diamine]	Weak
160	–	–	–	–	CN(C)CCNCc1nc2c3ccccc3cnc2c2ccccc12 [Compound 5, N′-dibenzo[c,h][1,5]naphthyridin-6-yl-methyl-N,N-dimethyl-ethane-1,2-diamine]	–
155	402	380	485	478	COc1ccc2c(c1)c(NCCCN(C)C)nc1c3ccccc3c(NCCCN(C)C)nc21 [Compound 10, N6,N12-bis-(3-dimethylamino-propyl)-2-methoxy-dibenzo[c,h][1,5]naphthyridine-6,12-diamine]	Moderate/ Strong
–	435	390	475	435	COc1ccc2c(c1)c(C)nc1c3ccc(OC)cc3c(NCCN(C)C)nc21 [Compound 12, N′-(2,8-dimethoxy-12-methyl-dibenzo[c,h][1,5]naphthyridin-6-yl)-N,N-dimethyl-ethane-1,3-diamine]	Weak
45	–	–	–	–	CN(C)CCCNCc1nc2c3ccccc3cnc2c2ccccc12 [Compound 6, N′-dibenzo[c,h][1,5]naphthyridin-6-yl-methyl-N,N-dimethyl-propane-1,3-diamine]	–
153	–	–	–	–	Cc1nc2c3ccccc3cnc2c2ccccc12 [Compound 1, 6-Methyl-dibenzo[c,h][1,5]naphthyridine]	–
209	400/400	400/400	482	468	COc1ccc2c(c1)c(NCCN(C)C)nc1c3ccc(OC)cc3c(NCCN(C)C)nc21 [Compound 14, N,N′-bis-(3-dimethylamino-ethyl)-2,8-dimethoxy-dibenzo[c,h][1,5]naphthyridin-6,12-diamine]	Weak
–	375	370	–	404/ND	CN(C)CCNc1nc2c3ccccc3cnc2c2ccccc12 [Compound 4, N′-Dibenzo[c,h][1,5]naphthyridin-6-yl-N,N-dimethyl-ethane-1,3-diamine]	–
–	394	390	407	425	COc1ccc2c(cnc3c4ccc(OC)cc4c(NCCN(C)C)nc23)c1 [Compound 13, N′-(2,8-dimethoxy-dibenzo[c,h][1,5]naphthyridin-6-yl)-N,N-dimethyl-ethane-1,3-diamine]	Moderate^§
139	425	385	468	427	COc1ccc2c(c1)c(C)nc1c3ccccc3c(NCCCN(C)C)nc21 [Compound 8, N′-(2-methoxy-12-methyl-dibenzo[c,h][1,5]naphthyridin-6-yl)-N,N-dimethyl-propane-1,3-diamine]	–
–	365	360	–	–	CCN(CC)CCCNCc1nc2c3ccccc3cnc2c2ccccc12 [Compound 2, N′-Dibenzo[c,h][1,5]naphthyridin-6-ylmethyl-N,N-diethyl-propane-1,3-diamine]	–
156	–	365/ND	–	–	CC(CO)(CO)NCc1nc2c3ccccc3cnc2c2ccccc12 [Compound 7, N′-dibenzo[c,h][1,5]naphthyridin-6-yl-methylamino-2-methyl-propane-1,3-diol]	–
216	405	390	500	484	COc1ccc2c(c1)c(NCCCN(C)C)nc1c3ccc(OC)cc3c(NCCCN(C)C)nc21 [Compound 11, N,N′-bis-(3-dimethylaminopropyl)-2,8-dimethoxy-dibenzo[c,h][1,5]naphthyridin-6,12-diamine]	Moderate/ Strong
